We go through 21 compounds from patent publication US5714127A, “System for multiple simultaneous synthesis” (Warner-Lambert Company, priority 1995, dated 1998).

For one assay, the target named is benzodiazepine receptor. The experiment in a line: benzodiazepine receptor binding assay (NovaScreen), [3H]Flunitrazipam radioligand. The arrangement: species or system bovine. As to conditions: commercially available reference samples (Table 3 footnote). The source says:
After the final compounds are formed using the inventive reaction apparatus, method and system, they are individually tested for biological activity once they are isolated. For example, the method of Sweetnam, et al, Molecular Pharmacology 1986; 29:299 employing bovine cortical membranes as a receptor source and a radiolabeled benzodiazepine, such as Flunitrazepam, to determine competitive ligand binding to the benzodiazepine receptor (central [brain] localized) and some quantitative measure of relative binding potency such as KD or IC50 values. Performing this type of assay serves two purposes: 1) to discover new compounds with biological activity in a given biological screening assay and 2) the development of a relationship between the structural variations contained within the series and biological potency. This second utility is known as development of a structure activity relationship (SAR). This type of assay can be done using the compounds isolated from the array synthesis for any receptor binding screen or assay (screening for receptor agonists or antagonists), enzyme functional assays (measuring competitive or noncompetitive inhibition of the catalyzed reaction), and the like. This strategy may be used to screen for pharmaceutical agents, veterinary agents, agricultural agents, diagnostic reagents, and the like.
To verify that the compounds produced could be used directly in a biological assay, the crude benzodiazepines are tested for activity in a benzodiazepine receptor binding assay without further purification. (The assay was performed using the commercially available NovaScreen® assay system contracted by Scios-Nova Pharmaceutical Corp., Baltimore, Md., whereby bovine cortical membrane preparations were used as the source of receptor and the radioligand employed was [^3 H]Flunitrazipam while the positive control was Clonazepam.) The calculated IC50 's from three concentrations (average of two determinations) for the individual compounds are shown in Table 3.
The compound `CN1C(=O)CN=C(c2ccccc2)c2cc(Cl)ccc21` [Diazepam, reference compound] showed an IC50 of 0.00067 µM.

Still in this assay, the particulars now being: crude benzodiazepines without further purification; bovine cortical membranes; [3H]Flunitrazipam; calculated from three concentrations (average of two determinations).
Regarding `CN1C(=O)CN=C(c2ccccc2)c2cc([N+](=O)[O-])ccc21` [Number 14], the IC50 is 0.064 µM.

In the case of `O=C1Nc2ccc([N+](=O)[O-])cc2C(c2ccccc2)=NC1Cc1c[nH]c2ccccc12` (stereo not drawn) [Number 20], the IC50 is 12.7 µM. Still for that read-out and setting: with `O=C1CN=C(C2CCCCC2)c2ccccc2N1` [Number 15] the figure was 25.7 µM; with `O=C1CN=C(c2ccccc2)c2cc([N+](=O)[O-])ccc2N1` [Number 12], 0.016 µM. On the same count and under the same terms, for `O=C1CN=C(c2ccccc2)c2ccccc2N1` [Number 9] the value was 0.515 µM. Still for that read-out and setting: for `CC1N=C(c2cccs2)c2ccccc2NC1=O` (stereo not drawn) [Number 8] the value was 5.9 µM. For the compound `CC1N=C(c2ccccc2)c2cc([N+](=O)[O-])ccc2NC1=O` (stereo not drawn) [Number 4], the IC50 is 0.482 µM. On the same count and under the same terms, for `CC1N=C(c2ccccc2)c2cc(Cl)ccc2NC1=O` (stereo not drawn) [Number 2] the value was 0.089 µM. The same measure, in the same setting: with `CC1N=C(c2ccccc2)c2cc([N+](=O)[O-])ccc2N(C)C1=O` (stereo not drawn) [Number 6] the figure was 1 µM; with `O=C1CN=C(c2ccccc2)c2cc(Cl)ccc2N1` [Number 10], 0.032 µM. Same read-out and setting: with `Cc1ccc2c(c1)N(C(C)C)C(=O)CN=C2c1ccccc1` [Number 13] the figure was 18.6 µM; with `O=C1CN=C(c2cccs2)c2ccccc2N1` [Number 16], 1.12 µM; with `CC1N=C(c2ccccc2)c2ccccc2NC1=O` (stereo not drawn) [Number 1], 5.79 µM.

Regarding `COc1ccc(C2=NCC(=O)Nc3ccccc32)cc1` [Number 11], the IC50 was 28.3 µM.

The same assay, now with this note: crude benzodiazepines without further purification; bovine cortical membranes; [3H]Flunitrazipam; cells that print their own unit mM.
In the case of `O=C1Nc2ccccc2C(c2ccccc2)=NC1Cc1c[nH]c2ccccc12` (stereo not drawn) [Number 17], the concentration for half-maximal inhibition (IC50) is > 1000 µM. On to `COc1ccc(C2=NC(C)C(=O)Nc3ccccc32)cc1` (stereo not drawn) [Number 3], for which the half-inhibitory concentration (IC50) was > 1000 µM. On the same count and under the same terms, for `COc1ccc(C2=NC(Cc3c[nH]c4ccccc34)C(=O)Nc3ccccc32)cc1` (stereo not drawn) [Number 19] the value was > 1000 µM; for `Cc1ccc2c(c1)N(C(C)C)C(=O)C(C)N=C2c1ccccc1` (stereo not drawn) [Number 5], > 1000 µM. On the same count and under the same terms, for `O=C1Nc2ccc(Cl)cc2C(c2ccccc2)=NC1Cc1c[nH]c2ccccc12` (stereo not drawn) [Number 18] the value was > 1000 µM.

On to `CC1N=C(C2CCCCC2)c2ccccc2NC1=O` (stereo not drawn) [Number 7], for which the 50% inhibitory concentration (IC50) is > 1000 µM.
